Source: US20230255195A1, “CRYOPRESERVATION METHOD FOR ORGAN-ON-A-CHIP” (MEPSGEN CO., LTD., priority 2020, published 2023)

Tested on: three-dimensional organ-on-a-chip (hBMEC, pericytes, astrocytes in hydrogel)
Experiment: TEER (transepithelial electrical resistance) of organ-on-a-chip after cryopreservation and thawing
Format: cell-based, human
Conditions: for TEER value after freezing compared with TEER value before freezing (normalized): FIG. 10; for TEER value after freezing compared with TEER value before freezing (normalized, before freezing set to 1): substance used as cryoprotectant in the cryopreservation method of Example 2, FIG. 9
Description: 10 μl of fibronectin was injected into each of the first channel and the second channel of the organ-on-a-chip of the present invention, and cultured in an incubator for 1 hour. Cell adhesion promoters of the first channel and the second channel were removed, and 10^7 cells/ml of a pericyte solution was injected into the second channel. After culturing for 3 hours in an incubator with the chip inverted, the culture solution in the second channel was removed. After injecting 10^7 cells/ml of a mixture in which astrocytes and hydrogel were mixed in a 1:9 volume ratio into the second channel, they were cultured in an incubator for 30 minutes. The culture solution was injected into the side channel and the first channel, and the well reservoir was filled with the culture solution and cultured for one day, and then 10^7 cells/ml of human brain microvascular endothelial cell (hBMEC) solution was injected into the first channel. After culturing for 1 hour in an incubator, the culture solution in the first channel was replaced and cultured for one day. The culture solution in the first channel and the side channel was replaced, and the side channel was plugged in, and then one side of the inlets of the first channel was connected to a syringe pump, and the other side was connected to a culture solution tank, and perfusion culture was performed at 4 dynes/cm^2 for 24 hours.
All of the culture solution in the well reservoir was removed from the organ-on-a-chip of Example 1 above, and the first channel and the side channel were washed with the culture solution. The side channel was washed twice with the cryopreservation solution (50% culture solution, 40% FBS, 10% DMSO) at 4 to 10° C. The culture solution in both inlets of the first channel was removed, and 30 μl of the cryopreservation solution was put into the inlet, and the cryopreservation solution was flowed by a difference in hydrostatic pressure (1 minute required). The preservation solution in the opposite inlet was removed, and 30 μl of the cryopreservation solution was additionally put into the inlet, and the cryopreservation solution was flowed by a difference in hydrostatic pressure (1 minute required). The chip was placed in a freezing container filled with isopropanol, and stored refrigerated for 15 minutes at 4° C., and then stored in a deep freezer (−80° C.).
The organ-on-a-chip of Example 2 above was taken out of the deep freezer and thawed for 10 minutes by immersing it in a constant temperature water bath (37° C.) so that the bottom was in contact, and then the culture solution in the side channel was replaced twice with a culture solution at 37° C. The preservation solution in both inlets of the first channel was removed, and 30 μl of the culture solution at 37° C. was put into the inlet, and the culture solution was flowed by a difference in hydrostatic pressure (1 minute required). The culture solution in the opposite inlet was removed, and 30 μl of the culture solution at 37° C. was additionally put into the inlet, and the culture solution was flowed by a difference in hydrostatic pressure (1 minute required). The well reservoir was filled with the culture solution at 37° C. and cultured for 24 hours or more.
The TEER value corresponds to a representative index for evaluating the cell-to-cell bonding force and the material permeability rate of the tissue and the like in the tissue function of the three-dimensional organ-on-a-chip.
The TEER value (ohm/cm^2) was calculated as follows, and the TEER value before freezing was set to 1 and compared and evaluated with the TEER value after freezing (normalized).

Compound	TEER value after freezing compared with TEER value before freezing (normalized) (DMSO content 3% in preservation solution)	TEER value after freezing compared with TEER value before freezing (normalized) (DMSO content 5% in preservation solution)	TEER value after freezing compared with TEER value before freezing (normalized) (DMSO content 10% in preservation solution)	TEER value after freezing compared with TEER value before freezing (normalized, before freezing set to 1)
C[S+](C)[O-] [DMSO, dimethyl sulfoxide]	remained the same	increased	increased	increased
OCCO [EG, ethylene glycol]				lower than the TEER value before freezing
OCC(O)CO [glycerol]				remained the same
